Assay results: publication PMC7113773 (Antiviral Research, 2014)
Structures can show the parent of a compound that is named as a salt. Where two headings read alike, the source gives them in different places.

Key:
A/Hong Kong/8/68 (H3N2) = assay: organism not typed; assay type: cell-based, influenza A virus; conditions: for EC50: read-out: EC50 for influenza virus A/Hong Kong/8/68
[1] = system: A/Puerto Rico/8/34 (H1N1; PR8); assay: organism not typed; assay type: cell-based, influenza A virus; conditions: for EC50: read-out: EC50 for influenza virus A/Puerto Rico/8/34
in vitro = conditions: dog
B/Lee/40 = assay type: cell-based, influenza B virus
[2] = system: pore-forming glycoprotein perforin; conditions: previous study, ref Lena et al., 2008; cited from earlier work
[3] = system: influenza A/H1N1, A/H3N2 and B viruses; assay: CPE reduction assay / screen, stated for the three influenza viruses together; assay type: cell-based; conditions: even at 100 μM
MDCK cells = conditions: read-out: CC50 for MDCK cells; mock-infected MDCK cells, day 3, MTT

Row | Compound | EC50 (A/Hong Kong/8/68 (H3N2); MDCK, 72 h) | EC50 ([1]; MDCK, 72 h) | CC50 (in vitro) | S.I. (selectivity index, CC50/EC50), A/Hong Kong/8/68 (A/Hong Kong/8/68 (H3N2)) | S.I. (selectivity index, CC50/EC50), A/Puerto Rico/8/34 [1] | S.I. (selectivity index, CC50/EC50), B/Lee/40 (B/Lee/40) | inhibitory effect on cell lysis induced by perforin [2] | anti-influenza activity [3] | CC50 (MDCK cells) | EC50 (A/Hong Kong/8/68 (H3N2)) | EC50 [1] | EC50 (B/Lee/40; read-out: EC50 for influenza virus B/Lee/40)
1 | Cc1cc2c(c(=S)[nH]1)C(=O)O/C2=C\c1sc2ccccc2c1C [Compound 15h, (Z)-6-Methyl-1-((3-methylbenzo[b]thiophen-2-yl)methylene)-4-thioxo-4,5-dihydrofuro[3,4-c]pyridin-3(1H)-one] | > 100 µM | > 100 µM | > 900 µM | – | – | – | – | – | – | – | – | –
2 | Cc1cc2c(c(=S)[nH]1)C(=O)O/C2=C\c1cc(Br)cs1 [Compound 15v, (Z)-1-((4-Bromothiophen-2-yl)methylene)-6-methyl-4-thioxo-4,5-dihydrofuro[3,4-c]pyridin-3(1H)-one] | 47.1 ± 18.7 µM | 63.7 ± 36 µM | > 900 µM | – | – | – | – | – | – | – | – | –
3 | Cc1cc2c(c(=S)[nH]1)C(=O)O/C2=C\c1sccc1C [Compound 15s, (Z)-6-Methyl-1-((3-methylthiophen-2-yl)methylene)-4-thioxo-4,5-dihydrofuro[3,4-c]pyridin-3(1H)-one] | 12.7 µM | 17.6 µM | > 900 µM | 12.7 ± 8.2 (>70.9) | 17.6 ± 11.0 (>51.1) | 14.0 ± 7.4 (>64.3) | – | – | – | – | – | –
4 | Cc1cc2c(c(=S)[nH]1)C(=O)O/C2=C\c1ccc(Br)s1 [Compound 15w, (Z)-1-((5-Bromothiophen-2-yl)methylene)-6-methyl-4-thioxo-4,5-dihydrofuro[3,4-c]pyridin-3(1H)-one] | > 100 µM | > 100 µM | > 900 µM | – | – | – | – | – | – | – | – | –
5 | Cc1cc2c(c(=S)[nH]1)C(=O)O/C2=C\c1c[nH]c2ccccc12 [Compound 15e, (Z)-1-((1H-Indol-3-yl)methylene)-6-methyl-4-thioxo-4,5-dihydrofuro[3,4-c]pyridi n-3(1H)-one] | > 100 µM | > 100 µM | > 900 µM | – | – | – | inactive | – | – | – | – | –
6 | CCc1ccc(/C=C2\OC(=O)c3c2cc(C)[nH]c3=S)s1 [Compound 15u, (Z)-1-((5-Ethylthiophen-2-yl)methylene)-6-methyl-4-thioxo-4,5-dihydrofuro[3,4-c]pyridin-3(1H)-one] | 32.6 ± 10.2 µM | 31.7 ± 21.7 µM | > 900 µM | – | – | – | – | – | – | – | – | –
7 | NC12CC3CC(CC(C3)C1)C2 [Amantadine hydrochloride, reference compound] | 2.8 ± 1.7 µM | > 100 µM | > 100 µM | – | – | – | – | – | – | – | – | –
8 | Cc1ccsc1/C=C1\OC(=O)c2c1cc(C)n(C)c2=S [Compound 15x, (Z)-5,6-Dimethyl-1-((3-methylthiophen-2-yl)methylene)-4-thioxo-4,5-dihydrofuro[3,4-c]pyridin-3(1H)-one] | 11.7 µM | 12.1 µM | > 900 µM | 11.7 ± 2.7 (>76.9) | 12.1 ± 9.5 (>74.4) | 8.0 ± 3.6 (>112.5) | – | – | – | – | – | –
9 | Cc1cc2c(c(=S)[nH]1)C(=O)O/C2=C\c1ncc[nH]1 [Compound 15p, (Z)-1-((1H-Imidazol-2-yl)methylene)-6-methyl-4-thioxo-4,5-dihydrofuro[3,4-c]pyridin-3(1H)-one] | > 100 µM | > 100 µM | > 900 µM | – | – | – | – | no anti-influenza activity | – | – | – | –
10 | Cc1cc2c(c(=S)[nH]1)C(=O)O/C2=C\c1csc2ccccc12 [Compound 15f, (Z)-1-(Benzo[b]thiophen-3-ylmethylene)-6-methyl-4-thioxo-4,5-dihydrofuro[3,4-c]pyridin-3(1H)-one] | 28.8 ± 6.2 µM | 26.1 ± 6 µM | > 900 µM | – | – | – | active | – | – | – | – | –
11 | Cc1cc2c(c(=S)[nH]1)C(=O)O/C2=C\c1ccoc1 [Compound 15m, (Z)-1-(Fran-3-ylmethylene)-6-methyl-4-thioxo-4,5-dihydrofuro[3,4-c]pyridin-3(1H)-one] | – | – | – | – | – | – | none | – | > 900 µM | 34.1 ± 10 µM | 21.4 ± 12.6 µM | 16.3 ± 8.5 µM
12 | Cc1cc2c(c(=S)[nH]1)C(=O)O/C2=C\c1ccc(C)s1 [Compound 15t, (Z)-6-Methyl-1-((5-methylthiophen-2-yl)methylene)-4-thioxo-4,5-dihydrofuro[3,4-c]pyridin-3(1H)-one] | 12.2 µM | 8 µM | > 900 µM | 12.2 ± 2.9 (>73.8) | 8.0 ± 3.6 (>112.5) | 9.6 ± 3.5 (>93.8) | active | – | – | – | – | –
